Data from patent US20120122908A1, “Novel C-4 Substituted Retinoids” (University of Maryland, priority 2000, published 2012).
Where two headings read alike, the source gives them in different places.

How the values were obtained:
PC-3 tumors = assay: Growth of PC-3 tumors in male nude mice; assay type: in vivo; settings: PC-3 xenografts
Description: FIG. 20: Effect of ATRA and VN/50A-1 on PC 3 Tumor Volumes in Male Nude Mice
The effects of VN/50A-1 on tumor growth was determined in mouse xenografts and compared to ATRA as the reference treatment (FIG. 20). Mice were grouped 35 days after cell inoculation when measurable tumor volume was approximately 500 mm^3. Total tumor volume in the control mice increased 5.4-fold over 7 weeks and tumor volume in the mice treated with ATRA increased by 3.2-fold (41% reduction compared with control). In the mice treated with VN/50A-1, tumor volume increased by 3.5-fold, which was 38% reduction versus control mice, which correlated well with accumulation of ATRA in plasma and in tumors. […] VN/50A-1 is completely eliminated from plasma within 3 hour of administration to mice (see FIG. 18). The inventive compounds with longer half-lives will have favorable bioavailability and are expected to be more efficacious.

ATRA 4-hydroxylase = ATRA 4-hydroxylase (Mesocricetus auratus, UniProt A0A1U7QD41); assay: Hamster liver microsome assay of ATRA metabolism (ATRA 4-hydroxylase inhibition); assay type: biochemical
Description: Washed hamster liver microsomes were prepared as follows: Livers are removed from sacrificed animals, rinsed in ice-cold 0.9% NaCl solution and homogenized in a 3-fold volume of 0.25 M sucrose-0.05 M Tris-HCl (pH 7.4) using a blender. Microsomes are isolated by differential centrifugation (10,000×g, 20 minutes; 100,000×g, 60 minutes; 4° C.) using a well-known technique (Van Wauwe, J.; Van Nyen, G.; Coene, M-C.; Stoppie, P.; Cols, W.; Goossens, J, Borghgraef, P.; Janssen, P A J, Liarozole, an Inhibitor of Retinoic Acid Metabolism, Exerts Retinoid-Mimetic Effects, In Vivo. J. Pharmacol. Expt. Ther. 261, 773-779, 1992). The microsomes are suspended in PBS buffer (pH 7.4), in 1 ml aliquots and stored at −70° C. until required.
The standard reaction mixture (total of 400 μl) is composed of assay buffer, 140 μl; microsomes, 100 μl ([…]); NADPH, 100 μl ([…]); and a C-4 substituted ATRA analog dissolved in DMSO, 40 μl. After a 3 minute preincubation at 37° C., the reaction is initiated by addition of 20 μl of [11,12-^3H]-ATRA (20 μCi/ml). The incubation is carried out for 30 minutes under oxygen with shaking in a water bath at 37° C. The reaction is stopped by acidification with 0.1 ml formic acid, and the samples are extracted (×2) with EtOAc (2 ml) containing 0.05% butylated hydroxyanisole. The combined organic extracts are evaporated in vacuo, dissolved in 200 μl of the mobile phase for HPLC. An aliquot is analyzed for tritium content by liquid scintillation spectrometry. Usually, >95% of the added radioactivity is recovered. Most of the samples (150 μl) are analyzed on a 10 (m C18 Bondapak column (3.9×300 mm, Millipore), eluted with a multi-linear gradient solvent system: i, MeOH—H2O—HCOOH (60:40:0.05) containing 10 mM ammonium acetate (100 (0%) and ii, MeOH (0 (100%) at 2 ml/min. The radioactivity is measured by an on-line radio-detector. The Rts of ATRA, 4-hydroxy-ATRA and 4-oxo-ATRA are determined by UV absorbance at 350 nm in separate cuvettes. Typically, 80±5% of [11, 12-^3H]ATRA is converted into the metabolites.
The C-4 substituted ATRA analogs are tested at two concentrations, 500 and 1000 nM. IC50 and Ki values are determined.
Incubation of [11,12-^3]ATRA with hamster liver microsomes as described above results in the formation of polar metabolites, including 4-hydroxy-ATRA and 4-oxo-ATRA (see FIG. 7A). […] VN/14-1RA inhibits cytochrome P450-dependent metabolism of ATRA.
Table 2B represents repeated testing of some of the compounds in Table 2A and testing on additional compounds. For comparison, the IC50 values of liarozole and ketoconazole (known inhibitors of ATRA 4-hydroxylase) were also determined.

MCF-7Ca tumors = assay: Growth of MCF-7Ca tumors in mice; assay type: in vivo; settings: 10 mg/kg, after twenty-eight days
Description: FIG. 12. VN/14-1RA inhibition of growth of MCF-7Ca tumors in nude mice.
LNCaP cells are cultured as described above. Subconfluent cell are scraped into DPBS, counted and suspended in Matrigel (3×10^7 cells/mL). Male SCID mice 4-6 weeks old are obtained from NCI, Frederick, Md. Each mouse is inoculated s.c. with 0.1 mL of the cell suspension at two sites. Growth rate are determined from tumor volumes using calipers using well-known techniques (Yue W, Wang J, Savinov A, Brodie A, Effect of aromatase inhibitors on growth of mammary tumors in a nude mouse model, Cancer Res, July 15; 55(14):3073-7 (1995). Tumor volumes are calculated according to the equation: V=4/3×π×r1^2×r2 (r1<r2). Tumors are allowed to grow for 4-5 weeks following cell inoculation. Mice are then grouped (6 mice per group) for castration or treatment with vehicle, liarozole (as a comparison), or one of the C-4 substituted ATRA analogs (at various concentration based on IC50 and/or Ki values for each novel compound, mg/kg/day). The route of administration of C-4 substituted ATRA analogs include s.c., i.m., i.p., and oral. Tumors are measured weekly for 4-5 weeks of treatment and tumor volumes calculated. Blood is collected from the euthanized animals that are autopsied 1 hour after the last injection. Tumors are excised, weighed and stored at −80° C. until required. […]

PC-3 cells = settings: 9 days, with ATRA (1 nM), FIG. 16
Description: Experiments are conducted on two prostate cancer cell lines, LNCaP cells and PC-3 cells.
This method also is repeated using PC-3 cells.
PC-3 cells were incubated with test compounds for 9 days with medium changes on days 2, 5, and 7 and proliferation assessed as described above.

ATRA 4-hydroxylase, sequence (A0A1U7QD41 entry or part of it): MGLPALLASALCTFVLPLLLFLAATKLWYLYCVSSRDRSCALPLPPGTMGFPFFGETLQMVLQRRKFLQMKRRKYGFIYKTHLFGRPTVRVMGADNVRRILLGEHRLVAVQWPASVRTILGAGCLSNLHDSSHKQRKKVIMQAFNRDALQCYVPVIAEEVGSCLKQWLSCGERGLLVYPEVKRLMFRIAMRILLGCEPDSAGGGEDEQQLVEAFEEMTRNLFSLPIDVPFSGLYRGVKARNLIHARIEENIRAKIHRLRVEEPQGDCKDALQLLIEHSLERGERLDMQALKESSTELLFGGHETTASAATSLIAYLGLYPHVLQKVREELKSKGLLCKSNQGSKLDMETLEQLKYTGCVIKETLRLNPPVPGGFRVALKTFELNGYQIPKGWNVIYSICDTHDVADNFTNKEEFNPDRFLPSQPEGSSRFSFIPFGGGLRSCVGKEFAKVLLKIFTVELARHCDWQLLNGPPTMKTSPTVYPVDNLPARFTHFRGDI

Row | Structure (SMILES) | tumor weights versus control mice (PC-3 tumors) | reduction of tumor volume compared with control (PC-3 tumors; over 7 weeks) | increase of total tumor volume (PC-3 tumors; over 7 weeks, control 5.4-fold) | fold more potent than liarozole (ATRA 4-hydroxylase; ratio of IC50 values, liarozole IC50 6,000 nM) | size of MCF-7Ca tumors relative to control group (MCF-7Ca tumors) | antiproliferative effect on PC-3 cells (PC-3 cells) | microsomal conversion of ATRA to polar metabolites (ATRA 4-hydroxylase; 1 μM compound, hamster liver microsomes, FIG. 7B) | IC50 (ATRA 4-hydroxylase; hamster liver microsomes, Table 2A, initial testing, read-out: IC50 Value) | IC50 (ATRA 4-hydroxylase; hamster liver microsomes, Table 2B, repeated testing and additional compounds, read-out: IC50 Value, Inhibition of ATRA 4-Hydroxylase)
1 | CC(C=CC1=C(C)C(n2ccnc2)CCC1(C)C)=CC=CC(C)=CC(=O)n1ccnc1 (stereo not drawn) [VN/50A-1] | significantly (P<0.05) lower | 38% | 3.5 fold | 240,000 fold |  |  |  |  | 
2 | CC1=C(/C=C/C(C)=C/C=C/C(C)=C/C(=O)O)C(C)(C)CCC1n1ccnc1 (racemic) [VN/14-1, (±)-4-(1H-imidazole-1-yl)retinoic acid] |  |  |  |  | one-half | clearly more effective than liarozole | significantly suppressed | 100 ± 1 nM | 1.2 ± 0.072 nM
